What was measured:
Rattus norvegicus [1] = assay: Anti-inflammatory activity in albino Rattus norvegicus (rat) assessed as inhibition of carrageenan-induced paw edema at 25 mg/kg, po administered 1 hr prior to carrageenan-challenge measured after 1 to 3 hr relative to control; type: functional
Mus musculus = assay: Antinociceptive activity in albino Mus musculus (mouse) assessed as increase in latency for tail withdrawal at 20 mg/kg, po measured after 4 hr by thermal stimulus method relative to control; type: functional
[2] = Toxicity in ip dosed albino Mus musculus (mouse) measured after 24 hr; type: organism-based; conditions: in vivo, read-out: ALD50
Rattus norvegicus [3] = assay: Anti-inflammatory activity in albino Rattus norvegicus (rat) assessed as inhibition of carrageenan-induced paw edema at 100 mg/kg, po administered 1 hr prior to carrageenan-challenge measured after 1 to 3 hr relative to control; type: functional
Rattus norvegicus [4] = assay: Anti-inflammatory activity in albino Rattus norvegicus (rat) assessed as inhibition of carrageenan-induced paw edema at 50 mg/kg, po administered 1 hr prior to carrageenan-challenge measured after 1 to 3 hr relative to control; type: functional
[5] = Ulcerogenic activity in ip dosed fasted albino Rattus norvegicus (rat) measured after 8 hr; type: toxicity, organism-based; conditions: in vivo, read-out: UD50

| Compound | inhibition in vivo at 25 mg/kg (Rattus norvegicus [1]) | Activity (Mus musculus) | LD50 at 24 h [2] | inhibition in vivo at 100 mg/kg (Rattus norvegicus [3]) | inhibition in vivo at 50 mg/kg (Rattus norvegicus [4]) | TD50 at 8 h [5] |
| --- | --- | --- | --- | --- | --- | --- |
| CC1=C(C(=O)Nc2ccc(F)cc2)C(c2ccc(Cl)cc2)n2c(s/c(=C/c3ccccc3Cl)c2=O)=N1 (centres undefined) | 16% | 63% | – | – | – | – |
| CC1=C(C(=O)Nc2ccc(F)cc2)C(c2ccc(Cl)cc2)n2c(s/c(=C/c3ccc(Cl)cc3Cl)c2=O)=N1 (centres undefined) | 14% | 46% | – | – | – | – |
| CC1=C(C(=O)Nc2ccc(F)cc2)C(c2ccc(Cl)cc2)n2c(s/c(=C/c3ccccc3[N+](=O)[O-])c2=O)=N1 (centres undefined) | 16% | 82% | – | – | – | – |
| CC1=C(C(=O)Nc2ccc(F)cc2)C(c2ccc(F)cc2)n2c(s/c(=C/c3ccc([N+](=O)[O-])cc3)c2=O)=N1 (centres undefined) | 30% | 121% | – | – | – | – |
| CC1=C(C(=O)Nc2ccc(F)cc2)C(c2ccc(F)cc2)n2c(s/c(=C/c3ccc(Cl)cc3)c2=O)=N1 (centres undefined) | 47% | 189% | > 1000 mg/kg | 78% | 50% | 175 mg/kg |
| CC1=C(C(=O)Nc2ccc(F)cc2)C(c2ccccc2[N+](=O)[O-])n2c(s/c(=C/c3ccccc3Cl)c2=O)=N1 (centres undefined) | 12% | 72% | – | – | – | – |
| CC1=C(C(=O)Nc2ccc(F)cc2)C(c2ccccc2[N+](=O)[O-])n2c(s/c(=C/c3ccc(Br)cc3)c2=O)=N1 (centres undefined) | 16% | 100% | – | – | – | – |
| CC1=C(C(=O)Nc2ccc(F)cc2)C(c2ccc(F)cc2)n2c(s/c(=C/c3ccccc3Cl)c2=O)=N1 (centres undefined) | 19% | 119% | – | – | – | – |
| CC1=C(C(=O)Nc2ccc(F)cc2)C(c2ccc(Cl)cc2)n2c(s/c(=C/c3ccc(F)cc3)c2=O)=N1 (centres undefined) | 44% | 172% | > 1000 mg/kg | 80% | 60% | 240 mg/kg |
| CC1=C(C(=O)Nc2ccc(F)cc2)C(c2ccc(Cl)cc2)n2c(s/c(=C/c3ccc(Br)cc3)c2=O)=N1 (centres undefined) | 35% | 76% | – | – | – | – |
| COc1ccc(/C=c2/sc3n(c2=O)C(c2ccc(Br)cc2)C(C(=O)Nc2ccc(F)cc2)=C(C)N=3)cc1OC (centres undefined) | 8% | 23% | – | – | – | – |
| CC1=C(C(=O)Nc2ccc(F)cc2)C(c2ccc(Br)cc2)n2c(s/c(=C/c3ccc(Cl)cc3Cl)c2=O)=N1 (centres undefined) | 14% | 31% | – | – | – | – |
| CC1=C(C(=O)Nc2ccc(F)cc2)C(c2ccc(Br)cc2)n2c(s/c(=C/c3ccccc3)c2=O)=N1 (centres undefined) | 5% | 76% | – | – | – | – |
| CC1=C(C(=O)Nc2ccc(F)cc2)C(c2ccc(Br)cc2)n2c(s/c(=C/c3ccc(Cl)cc3)c2=O)=N1 (centres undefined) | 25% | 104% | – | – | – | – |
| CC1=C(C(=O)Nc2ccc(F)cc2)C(c2ccc(Br)cc2)n2c(s/c(=C/c3ccc(C)cc3)c2=O)=N1 (centres undefined) | 11% | 72% | – | – | – | – |
| CC1=C(C(=O)Nc2ccc(F)cc2)C(c2ccc([N+](=O)[O-])cc2)n2c(s/c(=C/c3ccc(Cl)cc3Cl)c2=O)=N1 (centres undefined) | 17% | 121% | – | – | – | – |
| CC1=C(C(=O)Nc2ccc(F)cc2)C(c2ccc([N+](=O)[O-])cc2)n2c(s/c(=C/c3ccc(Cl)cc3)c2=O)=N1 (centres undefined) | 23% | 104% | – | – | – | – |
| COc1ccc(/C=c2/sc3n(c2=O)C(c2ccc([N+](=O)[O-])cc2)C(C(=O)Nc2ccc(F)cc2)=C(C)N=3)cc1 (centres undefined) | 12% | 46% | – | – | – | – |
| CC1=C(C(=O)Nc2ccc(F)cc2)C(c2ccc([N+](=O)[O-])cc2)n2c(s/c(=C/c3ccccc3Cl)c2=O)=N1 (centres undefined) | 19% | 140% | – | – | – | – |
| CC1=C(C(=O)Nc2ccc(F)cc2)C(c2ccc([N+](=O)[O-])cc2)n2c(s/c(=C/c3ccccc3)c2=O)=N1 (centres undefined) | 7% | 93% | – | – | – | – |
| O=C(O)Cc1ccccc1Nc1c(Cl)cccc1Cl [DICLOFENAC] | – | 274% | – | – | – | – |
| CCCCC1C(=O)N(c2ccccc2)N(c2ccccc2)C1=O [PHENYLBUTAZONE] | 43% | – | > 1000 mg/kg | 70% | 55% | 70.2 mg/kg |
